Laboratory results: patent publication US20230414715A1, “TRAIL COMPOUNDS FOR REDUCING CANCER TREAMENT SIDE EFFECTS” (BROWN UNIVERSITY, priority 2022, published 2023)
“Also recorded” adds a separate entry of the source.

Legend:
[1] = system: duodenum, liver or heart; test: H&E of duodenum, liver and heart of irradiated, treated mice; conditions: 20 Gy irradiated mice, 2 weeks treatment
Protocol: Animal studies were carried out at Brown University facilities with approval from Brown University IACUC. C57B1/6 mice (Taconic), mice with bi-allelic loss of TRAIL Death Receptor-(DR5-/-) in a C57B1/6 background, and mice with bi-allelic loss of TRAIL (TRAIL -/-) in a C57B1/6 background were given a single whole-thorax x-ray (Philips RT250) irradiation dose of 20 Gy with shielding of other organs. 8-15-week-old male and female mice of each genotype were used. […] Treatment was continued for two weeks, where TLY012 was administered twice a week and ONC201 was administered once a week. For each genetic background, two mice received a control PO, two mice received TLY012 IP, and two mice received ONC201 PO. Mice were weighed twice a week, and 13 days post-irradiation all mice were euthanized. Organs were harvested from the mice and 600 μL of blood was collected via cardiac puncture for serum cytokine analysis. Organs were preserved in 10% formalin then embedded in paraffin and sectioned at a distance of 5 μm. […] TRAIL-/- female mice were also subjected to a survival study with a single whole-thorax radiation doses of 15 Gy or 18 Gy treated with the same regimen of TLY012 or control (n=2/radiation dose/treatment) (FIG. 3B). […]

[2] = system: e0771 orthotopic breast tumors in C57B1/6 mice; test: Orthotopic e0771 breast tumor model with 20 Gy whole-thorax irradiation
Protocol: C57B1/6 female mice (Taconic) were injected with 100,000 cells of murine breast cancer (e0771) in the right second mammary fat pad on day 0 of the experiment. […] Each group (n=3) also received a single whole-thorax x-ray irradiation dose of 20 Gy with shielding of other organs. One group (n=3) received no treatment and no radiation. The long axis and short axis of the tumors were measured using calipers and recorded twice a week. On day 18 all mice were euthanized at a humane endpoint, which was defined by 20% weight loss and/or a tumor volume of 2000 mm^3 (˜10% of body weight). Organs and tumors were harvested from the mice and 600 μL of blood was collected via cardiac puncture for serum cytokine analysis. Once tumors were extracted, they were weighed and measured to determine final volume and weight. Pulse oximeter readings were taken initially before radiation treatment and before sacrifice 9 days post-radiation (MouseSTAT Jr. Pulse Oximeter, Kent Scientific). When mice were under anesthesia the sensor of the MouseSTAT Jr. was placed on the hind right paw for 30 seconds. The highest and lowest values shown by the pulse oximeter during this time were recorded and then averaged together. The mean of all the averages per treatment group was then calculated.

[3] = system: TRAIL-/- mice; test: Survival after whole-thorax irradiation, TRAIL-/- mice; format: in vivo, mouse
Protocol: Starting one hour before irradiation, mice were treated with either 10 mg/kg of TLY012 (D&D Pharmatech) by intraperitoneal (IP) injection or 100 mg/kg of ONC201/TIC10 (Chimerix/Oncoceutics) by oral gavage (PO) or a control gavage consisting of 20% Cremophor® EL (Sigma #238470) and 70% Dulbecco's phosphate buffered saline solution (Cytiva SH30264.02) per volume via PO (n=2/gender/treatment).

[4] = system: TRAIL-/- female mice; test: In vivo respiration-gated microCT imaging of lungs; design: species or system mouse; conditions: 15 Gy
Protocol: For μCT imaging, all mice were imaged in a SkyScan 1276 in vivo microCT scanner (Bruker, Kontich, Belgium) under isoflurane at 41 μm voxels with a 0.7° rotation step in supine position. […] Mice underwent μCT scans 13 days post irradiation. Image-based respiratory gating was used to sort images into gates based on specific time points of the breathing cycle to minimize motion artifact in the final reconstruction. For 3D reconstruction, Dataviewer version 1.5.4 (Bruker) was used to sort the CT images using the function “Listmode Scan” grouping the images in each bin where bin 0=maximum exhale and bin 3=maximum inhale (empty views <10%). Once the images were sorted, the listmode dataset was opened in NRecon software (Bruker) where the ROI undergoes 3D reconstruction. Reconstructed images were then analyzed in CTAn software (Bruker) where the volume of the lungs was calculated during max inhale and max exhale. The plugins in the custom processing page were used to create an ROI that separated the lungs from the rest of the image. 3D reconstructed images of the lung only were then opened in CTvol software (Bruker) where the color (red=69%, green=50%, blue=50%) and the opacity (7%) of the lung was changed.

[5] = system: serum cytokines; test: Serum cytokine analysis in the NanoString cohort; format: in vivo, mouse
Protocol: All mouse serum samples were analyzed by a custom R&D systems Murine Premixed Multi- Analyte Kit (R&D Systems, Inc., Minneapolis, MN). The panel was run on a Luminex 200 Instrument (Luminex Corporation, Austin, TX) according to the manufacturer's instructions. Murine serum levels of Angiopoietin-2, BAFF/BLyS/TNFSF13B, CCL2/JE/MCP-1, CCL3/MIP-1 alpha, CCL4/MIP-1 beta, CCL5/RANTES, CCL7/MCP-3/MARC, CCL11/Eotaxin, CCL12/MCP-5, CCL20/MIP-3 alpha, CCL21/6Ckine, CCL22/MDC, Chitinase 3-like 1, CXCL1/GRO alpha/KC/CINC-1, CXCL10/IP-10/CRG-2, CXCL12/S DF- 1 alpha, Dkk-1, FGF basic/FGF2/bFGF, GDF-15, GM-CSF, Granzyme B, IFN-gamma, IGF-I/IGF-1, IL-1 alpha/IL-1F1, IL-1 beta/IL-1F2, IL-2, IL-3, IL-4, IL-6, IL-7, IL-10, IL-13, IL-16, IL-17/IL-17A, IL-27, IL-33 M-CSF, MMP-3, MMP-8, MMP-12, Prolactin, TWEAK/TNFSF12, VEGF, and VEGFR2/KDR/Flk-1 were measured. Analyte values were reported in picograms per milliliter (pg/mL). […] Latent TGF-β was activated in samples using 1 N HCl and samples were neutralized with 1.2 N NaOH/0.5 M HEPES. Samples were assayed immediately after neutralization.
One hour before radiation mice were grouped into control or given 10 mg/kg of TLY012 via IP injection (n=3/gender/treatment). Mice were treated and weighed twice a week up until 11 days post-radiation when all mice were euthanized.
Rodent sacrifice was performed following anesthetization with 100 mg/kg ketamine and 10 mg/kg xylazine administered intraperitoneally. ˜400-600 μL blood was first collected throughcardiac puncture with a 26G ⅝″ needle through the intercostal space into the left ventricle. […] 1 mL of 2 mg/mL EDTA in PBS was injected through the right ventricle to perfuse the lungs, after which the lungs were excised, washed further in PBS, submerged in RNAlater (Sigma-Aldrich, #R0901, Missouri, USA), and flash frozen in liquid nitrogen.

[6] = NanoString cohort, FIG. 5C, relative to untreated control

TLY012: N-terminal PEGylated recombinant human TRAIL; PEGylated trimeric TRAIL formulation
toxicities in duodenum, liver or heart [1]: No obvious toxicities | effect on anti-tumor efficacy of radiation (tumor weight and volume) ([2]; 20 Gy on day 9, treatment days 9, 12, 16, sacrifice day 18, FIG. 6B, C): no evidence that ONC201, TLY012 or their combination reduced efficacy of treatment | alveolar-wall thickness (H&E) ([2]; 9 days post irradiation): reduction | lung inflammation (H&E) ([2]; 9 days post irradiation): decreased inflammation | oxygen saturation (pulse oximetry) ([2]; 9 days post-radiation, versus irradiated mice without further treatment, FIG. 6D): more conserved; also recorded: partially rescued | CCL22/MDC levels ([2]; irradiated tumor-bearing mice, versus irradiated control, FIG. 6E): significant decrease; also recorded: reduction; also recorded: Reduced | rescue from radiation induced pneumonitis ([2]; tumor-bearing mice, 20 Gy): more potent by TLY012 than with ONC201 | protection from lethality ([3]; female TRAIL-/- mice, 15 Gy, FIG. 3B): protection from lethality | survival ([3]; female TRAIL-/- mice, 18 Gy whole-thorax irradiation, FIG. 3B): 3 weeks | survival / rescue from lethality ([3]; male TRAIL-/- mice, 18 Gy chest irradiation, 10 mg/kg, FIG. 3A): increased survival; also recorded: rescue from lethality | 3D reconstruction of lungs: clarity and visible airway space ([4]; same opacity conditions, FIG. 7B): overall clearer and have more visible airway space | lung expansion upon inhalation (μCT) ([4]; twice weekly treatment, two weeks post irradiation, versus 15 Gy control, FIG. 7A): expand more upon inhalation | CCL3/MIP-lalpha serum level [5, 6]: decrease | GDF-15 serum level [5, 6]: decrease | IL-1beta serum level [5, 6]: increase | fold-change in the cytokine levels of inflammatory markers in serum ([5]; serum taken 3 days after last administration): no statistically significant fold-change
